From ChEMBL document CHEMBL4184103, “Cytotoxicity and inhibition of leukemic cell proliferation by sesquiterpenes from rhizomes of Mah-Lueang (Curcuma cf. viridiflora Roxb.)” (Bioorg Med Chem Lett, 2018)
In brackets after ≈: the same amount, converted by molar mass. Several values for one entry are separate records, joined by “and”; a condition that tells them apart may be missing. Identical values can stand only once.

Experiments:
MOLT-4 [1] = assay: Down regulation of WT1 protein levels in human MOLT4 cells after 48 hrs by Western blot analysis relative to control; format: functional
MOLT-4 [2] = assay: Antiproliferative activity against human MOLT4 cells at IC20 after 48 hrs by trypan blue exclusion assay relative to control; format: functional
KG-1a [3] = assay: Cytotoxicity against human KG1a cells assessed as reduction in cell viability after 48 hrs by MTT assay; format: functional, cell-based
Ca-Ski = assay: Cytotoxicity against human CaSki cells assessed as reduction in cell viability after 72 hrs by MTT assay; format: functional, cell-based
PC-3 [4] = assay: Cytotoxicity against human PC3 cells assessed as reduction in cell viability after 72 hrs by MTT assay; format: functional, cell-based
MOLT-4 [5] = assay: Cytotoxicity against human MOLT4 cells assessed as reduction in cell viability after 48 hrs by MTT assay; format: functional, cell-based
MCF7 [6] = assay: Cytotoxicity against human MCF7 cells assessed as reduction in cell viability after 72 hrs by MTT assay; format: functional, cell-based
HT-29 = assay: Cytotoxicity against human HT-29 cells assessed as reduction in cell viability after 72 hrs by MTT assay; format: functional, cell-based
KG-1a [7] = assay: Down regulation of WT1 protein levels in human KG1a cells after 48 hrs by Western blot analysis relative to control; format: functional
HUVEC = assay: Cytotoxicity against human HUVEC cells assessed as reduction in cell viability after 72 hrs by MTT assay; format: functional, cell-based
KG-1a [8] = assay: Antiproliferative activity against human KG1a cells at IC20 after 48 hrs by trypan blue exclusion assay relative to control; format: functional
MOLT-4 [9] = assay: Down regulation of WT1 protein levels in human MOLT4 cells at 5 to 15 uM after 48 hrs by Western blot analysis relative to control; format: functional
MOLT-4 [10] = assay: Potency index, ratio of doxorubicin IC50 to compound IC50 for human MOLT4 cells; format: functional
HT-1080 = assay: Growth inhibition of human HT1080 cells after 48 hrs by MTT assay; format: functional, cell-based; settings: HT-1080, 48 h
KG-1a [11] = assay: Potency index, ratio of doxorubicin IC50 to compound IC50 for human KG1a cells; format: functional
HeLa = assay: Growth inhibition of human HeLa cells after 48 hrs by MTT assay; format: functional, cell-based
PC-3 [12] = assay: Growth inhibition of human PC3 cells after 48 hrs by MTT assay; format: functional, cell-based; settings: PC-3, 48 h
HL-60 = assay: Growth inhibition of human HL60 cells after 48 hrs by MTT assay; format: functional, cell-based; settings: HL-60, 48 h
SGC-7901 = assay: Growth inhibition of human SGC7901 cells after 48 hrs by MTT assay; format: functional, cell-based; settings: SGC-7901, 48 h
HepG2 = assay: Growth inhibition of human HepG2 cells after 48 hrs by MTT assay; format: functional, cell-based; settings: HepG2, 48 h
MOLT-4 [13] = assay: Cytotoxicity against human MOLT4 cells assessed as reduction in cell viability; format: functional, cell-based
NCI-H187 = assay: Cytotoxicity against human NCI-H187 cells assessed as reduction in cell viability; format: functional, cell-based
MCF7 [14] = assay: Cytotoxicity against human MCF7 cells assessed as reduction in cell viability; format: functional, cell-based
KB = assay: Cytotoxicity against human KB cells assessed as reduction in cell viability; format: functional, cell-based
[15] = Homo sapiens, MOLT-4, 48 h, read-out: IC50

**Q.** Which results are given for CC(C)=C1CC(=O)[C@@H](C)CC/C=C(\C)CC1=O?
**A.** Activity (MOLT-4 [1]): 55.25%; Activity (MOLT-4 [2]): 49.44%; IC20 (KG-1a [3]): 30 µg/mL (≈ 128 µM); IC50 (KG-1a [3]): > 100 µg/mL; IC50 (Ca-Ski): 21.7 µg/mL (≈ 92.6 µM); IC50 (PC-3 [4]; pc-3): 19.1 µg/mL (≈ 81.5 µM); IC50 (MOLT-4 [5]; molt-4): > 100 µg/mL and 35 µg/mL; IC50 (MCF7 [6]; mcf7): 33 µg/mL (≈ 141 µM); IC50 (HT-29; ht-29): 22.7 µg/mL (≈ 96.9 µM); Activity (KG-1a [7]): 44.3%; IC50 (HUVEC; huvec): 24 µg/mL (≈ 102 µM); Activity (KG-1a [8]): 19.92%

**Q.** What does the source list for CC(C)=C1C[C@@H]2O[C@@]2(C)CC/C=C(\C)CC1=O?
**A.** Activity (MOLT-4 [1]): 62.53%; Activity (MOLT-4 [2]): 55.7%; IC20 (KG-1a [3]): 20 µg/mL (≈ 85.3 µM); IC50 (KG-1a [3]): > 100 µg/mL; IC50 (PC-3 [4]; Homo sapiens, PC-3, 72 h): 43.9 µg/mL (≈ 187 µM); IC50 (MOLT-4 [5]; [15]): > 100 µg/mL; IC50 (MOLT-4 [5]; molt-4): 53 µg/mL (≈ 226 µM); IC50 (MCF7 [6]; Homo sapiens, MCF7, 72 h): 37.2 µg/mL (≈ 159 µM); IC50 (HT-29; Homo sapiens, HT-29, 72 h): 39.6 µg/mL (≈ 169 µM); Activity (KG-1a [7]): 92.22%; IC50 (HUVEC; Homo sapiens, HUVEC, 72 h): 48.4 µg/mL (≈ 207 µM); Activity (KG-1a [8]): 24.27%

**Q.** How did the Activity (MOLT-4 [9]) turn out when COc1cc(/C=C/C(=O)CC(=O)/C=C/c2ccc(O)c(OC)c2)ccc1O [CURCUMIN] was run?
**A.** Its Activity is 90%.

**Q.** Which results are given for COc1cccc2c1C(=O)c1c(O)c3c(c(O)c1C2=O)C[C@@](O)(C(=O)CO)C[C@@H]3O[C@H]1C[C@H](N)[C@H](O)[C@H](C)O1 [DOXORUBICIN]?
**A.** IC50 (KG-1a [3]): 0.65 µg/mL (≈ 1.2 µM); IC50 (MOLT-4 [5]; [15]): 0.46 µg/mL (≈ 0.846 µM)

**Q.** Which results are given for C/C1=C\Cc2c(C)coc2C/C(C)=C/CC1 [ISOFURANODIENE]?
**A.** Activity (MOLT-4 [1]): 32.17%; Activity (MOLT-4 [2]): 10.74%; Ratio IC50 (MOLT-4 [10]): 86; IC50 (HT-1080): 0.6 to 4 µg/mL (≈ 2.77 to 18.5 µM); Ratio IC50 (KG-1a [11]): 77; IC20 (KG-1a [3]): 25 µg/mL (≈ 116 µM); IC50 (KG-1a [3]): 50.1 µg/mL (≈ 232 µM); IC50 (HeLa): 0.6 to 4 µg/mL (≈ 2.77 to 18.5 µM); IC50 (MOLT-4 [5]; [15]): 39.6 µg/mL (≈ 183 µM); IC50 (MOLT-4 [5]; molt-4): 23 µg/mL (≈ 106 µM); IC50 (PC-3 [12]): 0.6 to 4 µg/mL (≈ 2.77 to 18.5 µM); IC50 (HL-60): 0.6 to 4 µg/mL (≈ 2.77 to 18.5 µM); IC50 (SGC-7901): 0.6 to 4 µg/mL (≈ 2.77 to 18.5 µM); IC50 (HepG2): 0.6 to 4 µg/mL (≈ 2.77 to 18.5 µM); Activity (KG-1a [7]): 58.08%; Activity (KG-1a [8]): 19.58%

**Q.** For CC[C@]1(O)C[C@H]2CN(CCc3c([nH]c4ccccc34)[C@@](C(=O)OC)(c3cc4c(cc3OC)N(C=O)[C@H]3[C@@](O)(C(=O)OC)[C@H](OC(C)=O)[C@]5(CC)C=CCN6CC[C@]43[C@@H]65)C2)C1 [VINCRISTINE], which IC50 (MOLT-4 [13]) is on record?
**A.** Its IC50 is 0.00063 µg/mL (≈ 0.000764 µM).

**Q.** What does the source list for CC(C)=C1C[C@H]2[C@@H](CC[C@]2(C)O)[C@](C)(O)CC1=O [ZEDOARONDIOL]?
**A.** IC50 (NCI-H187): > 50 µg/mL; Activity (MOLT-4 [1]): 63.17%; Activity (MOLT-4 [2]): 48.99%; IC20 (KG-1a [3]): 60 µg/mL (≈ 238 µM); IC50 (KG-1a [3]): > 100 µg/mL; IC50 (MOLT-4 [5]; [15]): 77.6 µg/mL (≈ 308 µM); IC50 (MOLT-4 [5]; molt-4): 49 µg/mL (≈ 194 µM); IC50 (MCF7 [14]): > 50 µg/mL; Activity (KG-1a [7]): 95.52%; Activity (KG-1a [8]): 30.48%; IC50 (KB): > 50 µg/mL
